Measurements reported in patent publication US20230381142A1, “ANTILEISHMANIAL COMPOUNDS, COMPOSITIONS AND USE THEREOF” (TRUSTEES OF BOSTON UNIVERSITY, priority 2022, published 2023).
Like-named read-outs stand apart in the source and are kept apart here.

How the values were obtained:
[1] = system: L. braziliensis (strain BA788) in J774 cells; assay: J774 luciferase infection assay (Assay Conditions E); assay type: cell-based, Leishmania braziliensis; settings: for L. braziliensis amastigotes EC75 (J774 cells): footnote e
Method: Assay Conditions E: J774 cells (ATCC J774A.1 were grown in DMEM supplemented with 10% Fetal Bovine Serum (FBS) and 1% Penicillin-Streptomycin at 37° C. in 5% CO2. Leishmania parasites expressing luciferase and GFP were grown as described in Front. Cell. Infect. Microbiol (2019) 9:237. J774 cells were seeded in microwell plates at 3×10^5 cells/mL density. Cells were washed with PBS and incubated with complete DMEM medium containing stationary phase Leishmania promastigotes (L. major: strain Friedlin; L. braziliensis, strain BA788) at a 1:10 parasite-cell ratio for 24 h. Cells were washed with PBS. Cells and compounds were incubated for 48 h at 37° C. and 5% C02. Compounds were tested in 8-point 2-fold serial dilution in 4 technical replicates, and 2 biological replicates. After 48 h, OneTiterGlo (Promega) (100 μl) was added to each well. Plates were incubated for 15 min and bioluminescence was measured using a plate reader (Molecular Devices). Effective concentration inducing 75% activity (EC75) was calculated using GraphPad Prism Software (version 9.0).

[2] = UCSD infection assay, host cell cytotoxicity (CC50); assay type: cell-based; settings: mouse, B10R host cells infected with L. donovani
Method: (§1) Assay Conditions D: B10R cells (CVCL_0155) were seeded at 300 cells/well, and L. donovani WT promastigotes in stationary phase (7th day after passage) were added at 6,000 parasites/well (ratio of 20 parasites/cell). Both cells and parasites were seeded in DMEM High-Glucose medium (Gibco, cat. no. 11995065) containing 5% Fetal Bovine Serum (Sigma-Aldrich, cat. no. F2442) and 1% Penicillin-Streptomycin (Gibco, cat. no. 15140122). Cells and parasites were incubated in the presence of the compounds for 72 h at 37° C. and 5% C02. Plates were then fixed with 4% formaldehyde solution for at least 1 h, then washed with 1×PBS and stained with 5 μg/mL DAPI. Plates were read using an ImageXpress microscope (Molecular Devices) and analyzed by MetaXpress software (Molecular Devices) using a custom module optimized for this assay. […] Compounds were tested in a 10-point 2-fold serial dilution in 3 technical replicates, and 2 biological replicates. After 72 h, plates were fixed and stained with DAPI as described above. Images were acquired on an ImageXpress microscope, and analyzed using the MetaXpress custom module.
as §1, with “Compounds were obtained as 0.2 μmoles of dried film for primary single point screening. Each compound was diluted in DMSO to 10 μM final testing concentration. These compounds were tested in 2 biological replicates. The compounds were pre-spotted onto 384-well assay plates in single concentration.” for “Assay Conditions D:”, “CO2.” for “C02.”, “module. The DRCs were plotted, half-effective concentration (EC50) and half-cytotoxic concentration (CC50) were calculated using GraphPad Prism Software, version 6.05 (GraphPad Software, San Diego, CA).” for “module.”

[3] = system: L. donovani intracellular amastigotes in B10R cells; assay: UCSD L. donovani infection assay (Assay Conditions D); assay type: cell-based; settings: B10R cells; for L. donovani amastigotes EC75 (B10R cells): footnote d; for EC50: Leishmania donovani, values marked d, read-out: L. donovani amastigotes EC50 (B10R cells)
Outline: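 Compounds, either single-point at 10 μM or 10-point 2-fold series (3 technical, 2 biological replicates), were incubated 72 h at 37° C. with B10R host cells co-seeded with day-7 stationary L. donovani promastigotes (20:1). DAPI-stained nuclei imaging yielded intracellular parasite EC50 and host-cell CC50.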

[4] = system: L. donovani intracellular amastigotes infecting THP-1 cells; assay: High content intracellular amastigote assay in THP-1 cells (Assay Conditions B; CDIPD screen); assay type: cell-based, Leishmania donovani; settings: 10 μM; THP-1 cells; footnote b
Method: (§2) Assay Conditions B: THP-1 cells (human acute monocytic leukemia cell line—ATCC TIB202) were grown in RPMI supplemented with 10% Fetal Bovine Serum (FBS) and 50 μM 2-mercaptoethanol at 37° C. in 5% CO2. THP-1 were seeded in microwell plates at 5×10^5 cells/mL density and treated with 0.1 μM phorbol myristate acetate (PMA, Sigma) at 37° C. for 48 h for differentiation into adherent, non-dividing macrophages. After activation by PMA, cells were washed and incubated with complete RPMI medium containing stationary phase Leishmania promastigotes (L. major: strain LV39; L. donovani, strain 1S/Cl2D) at a 1:15 parasite-cell ratio. Compounds were added and incubated at 37° C. for 72 h. Cells were then washed with phosphate-buffered saline (PBS), fixed for 30 minutes with 4% formaldehyde, rinsed again with PBS, stained for 2 h with 4′,6′-diamidino-2-phenylindole (DAPI 300 nM) and finally washed with PBS. In a collaborative effort to identify new antileishmanial chemotypes with minimal host cell cytotoxicity, compounds from the Boston University Center for Molecular Discovery (BUCMD) screening collection were assessed in a phenotypic, high content primary screen at the University of California's Center for Discovery and Innovation in Parasitic Diseases (CDIPD) for the ability to inhibit growth of L. donovani intracellular amastigotes infecting THP-1 cells. […] Dose-response testing in L. donovani (both intracellular amastigotes and promastigotes) confirmed concentration-dependent growth inhibition of both morphologies of the parasite at low micromolar EC50 values for both compounds (Table 1).

THP-1 cells = assay: Host THP-1 cell cytotoxicity in the CDIPD high content screen; assay type: cell-based, human; settings: Homo sapiens, THP-1; 10 μM; footnote b; read-out: THP-1 host cell % growth inhibition at 10 μM
Method: as §2

[5] = GSK inMac assay, host cell toxicity readout (LD MAC); assay type: cell-based, human; settings: human
Outline: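 MAC EC50 reflects THP-1 host cell counts, measured within GSK's inMac L. donovani infection assay that also scores intracellular amastigotes and infected-cell percentage.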

[6] = system: L. donovani intracellular amastigotes infecting THP-1 macrophages; assay: GSK intramacrophage L. donovani assay (LD AMMAC, inMac; Assay Conditions C); assay type: cell-based; settings: Leishmania donovani
Outline: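 EC50 values come from counting amastigotes per infected THP-1 macrophage (AMMAC). Parallel read-outs give percentage of infected cells per well (INFCELL) and a macrophage-number toxicity EC50 (MAC).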

[7] = footnote c, read-out: THP-1 Host Cell CC50

Cc1cc(N2C(=O)c3[nH]nc(CC(C)C)c3C2c2ccccc2Cl)ccn1 (stereo not drawn) [BUCMD00639]
L. braziliensis amastigotes EC75 (J774 cells) [1]: >10 µM | CC50 at 72 h ([2]; footnote d): 20 µM | L. donovani amastigotes EC75 (B10R cells) [3]: 0.4 µM

CC(C)Cc1n[nH]c2c1C(c1ccc(Br)cc1F)N(c1ccc(F)nc1)C2=O (stereo not drawn) [BUCMD00649]
L. braziliensis amastigotes EC75 (μM, J774 cells) [1]: >10 µM | L. donovani amastigotes EC75 (μM, B10R cells) [3]: >10 µM

CC(C)Cc1n[nH]c2c1C(c1ccc(F)cc1Br)N(c1ccc(F)nc1)C2=O (stereo not drawn) [BUCMD00650]
L. braziliensis amastigotes EC75 (μM, J774 cells) [1]: 9.0 µM | L. donovani amastigotes EC75 (μM, B10R cells) [3]: >10 µM

Cc1ccccc1C1c2c(CC(C)C)n[nH]c2C(=O)N1c1ccc(F)nc1 (stereo not drawn) [BUCMD00651]
L. braziliensis amastigotes EC75 (μM, J774 cells) [1]: >10 µM | L. donovani amastigotes EC75 (μM, B10R cells) [3]: 6.3 µM

Cc1cc(F)ccc1C1c2c(CC(C)C)n[nH]c2C(=O)N1c1cnn(C(C)C)c1 (stereo not drawn) [BUCMD00673]
L. braziliensis amastigotes EC75 (μM, J774 cells) [1]: >10 µM | L. donovani amastigotes EC75 (μM, B10R cells) [3]: >10 µM

COc1ccc(N2C(=O)c3[nH]nc(CC(C)C)c3C2c2ccc(F)cc2Cl)cn1 (stereo not drawn) [BUCMD00684]
L. braziliensis amastigotes EC75 (μM, J774 cells) [1]: 10.0 µM | L. donovani amastigotes EC75 (μM, B10R cells) [3]: >10 µM

COc1ccc(N2C(=O)c3[nH]nc(CC(C)C)c3C2c2ccc(Cl)cc2F)cn1 (stereo not drawn) [BUCMD00685]
L. braziliensis amastigotes EC75 (μM, J774 cells) [1]: >10 µM | L. donovani amastigotes EC75 (μM, B10R cells) [3]: 1.7 µM

COc1ccc(N2C(=O)c3[nH]nc(CC(C)C)c3C2c2ccccc2C)cn1 (stereo not drawn) [BUCMD00687]
L. braziliensis amastigotes EC75 (μM, J774 cells) [1]: >10 µM | L. donovani amastigotes EC75 (μM, B10R cells) [3]: >10 µM

COc1ccc(N2C(=O)c3[nH]nc(CC(C)C)c3C2c2ccc(F)cc2F)cn1 (stereo not drawn) [BUCMD00688]
L. braziliensis amastigotes EC75 (μM, J774 cells) [1]: >10 µM | L. donovani amastigotes EC75 (μM, B10R cells) [3]: 3.3 µM

COc1ccc(N2C(=O)c3[nH]nc(CC(C)C)c3C2c2ccccc2C(F)(F)F)cn1 (stereo not drawn) [BUCMD00689]
L. braziliensis amastigotes EC75 (μM, J774 cells) [1]: >10 µM | L. donovani amastigotes EC75 (μM, B10R cells) [3]: >10 µM

COc1ccc(N2C(=O)c3[nH]nc(CC(C)C)c3C2c2sccc2C)cn1 (stereo not drawn) [BUCMD00690]
L. braziliensis amastigotes EC75 (μM, J774 cells) [1]: >10 µM | L. donovani amastigotes EC75 (μM, B10R cells) [3]: 9.7 µM

COc1ccc(N2C(=O)c3[nH]nc(CC(C)C)c3C2c2ccccc2F)cn1 (stereo not drawn) [BUCMD00691]
L. braziliensis amastigotes EC75 (μM, J774 cells) [1]: >10 µM | L. donovani amastigotes EC75 (μM, B10R cells) [3]: 4.9 µM

COc1ccc(N2C(=O)c3[nH]nc(CC(C)C)c3C2c2ccc(F)c(F)c2)cn1 (stereo not drawn) [BUCMD00692]
L. braziliensis amastigotes EC75 (μM, J774 cells) [1]: >10 µM | L. donovani amastigotes EC75 (μM, B10R cells) [3]: >10 µM

CC(C)Cc1n[nH]c2c1C(c1ccc(F)cc1Cl)N(c1cncc(F)c1)C2=O (stereo not drawn) [BUCMD00694]
L. braziliensis amastigotes EC75 (J774 cells) [1]: >10 µM | CC50 at 72 h ([2]; footnote d): 10 µM | L. donovani amastigotes EC75 (B10R cells) [3]: 0.4 µM

C#CCCOc1ccc(C2c3c(CC(C)C)n[nH]c3C(=O)N2c2ccc(OC)cc2)c(Cl)c1 (stereo not drawn) [BUCMD00728]
L. braziliensis amastigotes EC75 (μM, J774 cells) [1]: >10 µM | L. donovani amastigotes EC75 (μM, B10R cells) [3]: >10 µM

COc1ncc(N2C(=O)c3[nH]nc(CC(C)C)c3C2c2ccc(F)cc2C)cc1F (stereo not drawn) [BUCMD00729]
L. braziliensis amastigotes EC75 (J774 cells) [1]: 2.0 µM | CC50 at 72 h ([2]; footnote d): 6.31 µM | L. donovani amastigotes EC75 (B10R cells) [3]: 0.4 µM

C#CCCCCOc1ccc(C2c3c(CC(C)C)n[nH]c3C(=O)N2c2ccc(OC)nc2)c(Cl)c1 (stereo not drawn) [BUCMD00738]
L. braziliensis amastigotes EC75 (μM, J774 cells) [1]: >10 µM | CC50 at 72 h ([2]; host B10R cells): 7.94 µM | L. donovani amastigotes EC75 (μM, B10R cells) [3]: >10 µM

COc1ccc(N2C(=O)c3[nH]nc(C(C)C)c3C2c2ccc(C)cc2)cc1 (stereo not drawn) [CMLD007169]
L. donovani amastigotes % GI at 10 μM (THP-1 cells) [4]: 0.0% | inhibition at 10 µM (THP-1 cells): < 10%

COc1ccc(N2C(=O)c3[nH]nc(C(C)C)c3C2c2ccc(F)cc2)cc1 (stereo not drawn) [CMLD007188]
L. donovani amastigotes % GI at 10 μM (THP-1 cells) [4]: 0.0% | inhibition at 10 µM (THP-1 cells): < 10%

COc1ccc(N2C(=O)c3[nH]nc(-c4ccccc4)c3C2c2ccccc2)cc1 (stereo not drawn) [CMLD007203]
L. donovani amastigotes % GI at 10 μM (THP-1 cells) [4]: 0.0% | inhibition at 10 µM (THP-1 cells): < 10%

COc1ccc(N2C(=O)c3[nH]nc(C)c3C2c2ccccc2)cc1 (stereo not drawn) [CMLD007219]
L. donovani amastigotes % GI at 10 μM (THP-1 cells) [4]: 0.0% | inhibition at 10 µM (THP-1 cells): < 10%

COc1ccc(N2C(=O)c3[nH]nc(C)c3C2c2ccc(F)cc2)cc1 (stereo not drawn) [CMLD007221]
L. donovani amastigotes % GI at 10 μM (THP-1 cells) [4]: 0.0% | inhibition at 10 µM (THP-1 cells): < 10%

COc1ccc(N2C(=O)c3[nH]nc(CC(C)C)c3C2c2ccc(F)cn2)cc1 (stereo not drawn) [CMLD011100]
CC50 [5, 7]: > 50 µM | L. braziliensis amastigotes EC75 (J774 cells) [1]: >10 µM | EC50 ([6]; THP-1 cells, values marked c, read-out: L. donovani amastigotes EC50 (THP-1 cells)): 10 µM | L. donovani amastigotes EC75 (B10R cells) [3]: 4.4 µM

COc1ccccc1C1c2c(CC(C)C)n[nH]c2C(=O)N1c1ccc(N(C)C)cc1 (stereo not drawn) [CMLD011552]
CC50 [5, 7]: 3.5 µM | L. braziliensis amastigotes EC75 (J774 cells) [1]: >10 µM | CC50 at 72 h ([2]; footnote d): 3.98 µM | L. donovani amastigotes EC75 (B10R cells) [3]: 0.1 µM | EC50 [3]: 0.1 µM

Cc1cc(F)ccc1C1c2c(CC(C)C)n[nH]c2C(=O)N1c1ccc(Br)cc1 (stereo not drawn) [CMLD011565]
CC50 [5, 7]: 3 µM | L. braziliensis amastigotes EC75 (J774 cells) [1]: 5.0 µM | CC50 at 72 h ([2]; footnote d): 3.98 µM | L. donovani amastigotes EC75 (B10R cells) [3]: 0.1 µM | EC50 [3]: 0.1 µM

COc1ccc(N2C(=O)c3[nH]nc(CC(C)C)c3[C@H]2c2ccc(F)cc2)cc1 [CMLD013629]
CC50 ([5]; host THP-1 cells): 25.1 µM | EC50 ([6]; values marked c: THP-1 cells, read-out: L. donovani amastigotes EC50 (μM, THP-1 or B10R cells)): 10 µM | CC50 at 72 h ([2]; host B10R cells): 20 µM | L. donovani amastigotes EC75 (μM, B10R cells) [3]: >10 µM
